Results reported in ChEMBL document CHEMBL1128939, “New simplified inhibitors of EPSP synthase: The importance of ring size for recognition at the shikimate 3-phosphate site” (Bioorg Med Chem Lett, 1996).

What follows are compounds tested against T1, 3-phosphoshikimate 1-carboxyvinyltransferase (Escherichia coli K-12, UniProt P0A6D3) (assay: Compound was tested for inhibitory activity against EPSP(5-enolpyruvylshikimate 3-phosphate) synthase in Escherichia coli.). Conditions: not given.
T1 sequence (P0A6D3 whole entry): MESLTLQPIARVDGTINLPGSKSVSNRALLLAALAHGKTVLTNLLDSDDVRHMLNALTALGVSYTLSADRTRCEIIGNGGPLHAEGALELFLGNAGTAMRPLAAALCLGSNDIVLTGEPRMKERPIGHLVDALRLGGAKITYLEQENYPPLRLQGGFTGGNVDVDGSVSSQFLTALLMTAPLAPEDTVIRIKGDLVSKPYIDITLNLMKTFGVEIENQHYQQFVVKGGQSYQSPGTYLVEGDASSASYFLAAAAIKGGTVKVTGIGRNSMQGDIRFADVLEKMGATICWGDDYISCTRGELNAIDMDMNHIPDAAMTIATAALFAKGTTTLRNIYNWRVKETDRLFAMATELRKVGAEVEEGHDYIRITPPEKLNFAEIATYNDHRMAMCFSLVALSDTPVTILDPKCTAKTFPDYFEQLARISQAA

| SMILES | IC50 [µM] |
| --- | --- |
| O=C(O)c1cccn1CP(=O)(O)O | 50000 |
| O=C(O)c1cccc(P(=O)(O)O)n1 | 50000 |
| O=C(O)c1cccc(P(=O)(O)O)c1 | 50000 |
| O=C(O)C1CCC(P(=O)(O)O)N1 (stereo not drawn) | 50000 |
| O=C(O)c1ccc(O)c(C(O)(C(=O)O)C(=O)O)c1 | 20000 |

Same assay, conditions: read-out: Kd app

| Kd [µM] | SMILES |
| --- | --- |
| 0.0006 | O=C(O)C1=C[C@@H](OP(=O)(O)O)[C@@H](O)[C@H](O[C@](CF)(OP(=O)(O)O)C(=O)O)C1 |

Same assay, conditions: read-out: Ki app

| SMILES | Ki [µM] |
| --- | --- |
| O=C(O)c1cc(C(O)P(=O)(O)O)c[nH]1 (stereo not drawn) | 0.0145 |
| C[C@@](O[C@@H]1CC(C(=O)O)=C[C@@H](OP(=O)(O)O)[C@H]1O)(C(=O)O)P(=O)(O)O | 0.005 |

Now from value to compound:

| Ki [µM] | SMILES |
| --- | --- |
| 13 | O=C(O)C1=C[C@@H](OP(=O)(O)O)[C@@H](O)CC1 |
| 0.004 | O=C(O)C1=C[C@@H](OP(=O)(O)O)[C@@H](O)[C@H](O[C@](OP(=O)(O)O)(C(=O)O)C(F)F)C1 |
| 0.52 | O=C(O)c1cc(OC(C(=O)O)P(=O)(O)O)c(O)c(C(O)(C(=O)O)C(=O)O)c1 (stereo not drawn) |
| 1.3 | O=C(O)c1cc(OC(C(=O)O)C(=O)O)cc(OC(C(=O)O)P(=O)(O)O)c1 (stereo not drawn) |
| 0.032 | O=C(O)C1=C[C@@H](OP(=O)(O)O)[C@@H](O)[C@H](O[C@](OP(=O)(O)O)(C(=O)O)C(F)(F)F)C1 |
